How the values were obtained:
[1] = target: T1, human D2 receptor (short isoform) (Homo sapiens, UniProt P14416); assay: Dopamine D2 Receptor Binding Assay (3H-spiperone displacement); details: 3H-spiperone 0.25 nM; GH4C1 (rat pituitary) cells stably transfected with human D2 short; 90 minutes, room temperature, pH 7.4
T1 construct: expressed in transfected cells
Protocol: GH4 C1 (rat pituitary) cells stably transfected with the human D2 receptor (short isoform) were grown in CO2 independent media in roller bottles (1500 cm^2) for 10 days. 100 μM ZnSO4 was added to the cells (the D2 promoter being zinc inducible). After 16 hours, fresh media was added to allow the cells to recover for 24 hours. The cells were harvested using versene and then centrifuged in a Sorval centrifuge for 10 minutes, at 5000 rpm (GS3 rotor). Pellets were quickly frozen in liquid nitrogen and stored at -80° C. until used in the binding assays. When used in the assay, cells were thawed on ice for 20 minutes.
This assay employed the same procedures as the non-specific binding assay for D4 with the exception that 2 μM (final conc.) of (-) sulpiride (Research Chemicals Inc.) was used in place of dopamine.
(§1) The incubation was started by the addition to 12×75 mm polypropylene tubes 500 μl (50 μg protein) membrane homogenate to a solution of 400 μl incubation buffer, 100 μl ([…].) ^3 H-spiperone (90 Ci/mmol, Amersham, diluted in borosilicate glass vial to) and 500 μl of test compound that was prepared from 1 mM stock dissolved in DMSO and stored at -20° C. in polypropylene cryogenic storage vials until dilution in incubation buffer in borosilicate glass vials.

5-HT2 receptor = 5-HT2 receptor (Rattus norvegicus, UniProt P14842); assay: 5-HT2 Receptor Binding Assay (3H-ketanserin displacement)
[2] = target: T2, human D4 receptor (D4.2 sub-type) (Homo sapiens, UniProt P21917, DEL265-296); assay: Dopamine D4 Receptor Binding Assay (3H-spiperone displacement); details: 3H-spiperone 0.25 nM; cells stably transfected with human D4.2; 90 minutes, room temperature, pH 7.4
T2 construct: expressed in transfected cells; host or cells: HEK 298 [sic] (human embryonic kidney) cells
T2 sequence (P21917 with tags, fused parts or gaps DEL265-296): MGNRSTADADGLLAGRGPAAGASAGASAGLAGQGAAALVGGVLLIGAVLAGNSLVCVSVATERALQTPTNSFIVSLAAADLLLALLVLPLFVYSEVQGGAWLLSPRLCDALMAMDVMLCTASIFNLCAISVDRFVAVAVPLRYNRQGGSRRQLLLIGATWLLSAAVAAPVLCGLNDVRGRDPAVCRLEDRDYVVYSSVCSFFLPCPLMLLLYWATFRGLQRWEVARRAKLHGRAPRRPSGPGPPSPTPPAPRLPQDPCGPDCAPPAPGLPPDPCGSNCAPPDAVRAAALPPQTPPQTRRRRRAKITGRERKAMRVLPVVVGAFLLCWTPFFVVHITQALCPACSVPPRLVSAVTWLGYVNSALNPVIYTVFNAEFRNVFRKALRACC
Protocol: The cells were then centrifuged in a Sorval centrifuge for 10 minutes, 5000 rpm (GS3 rotor) and the pellets quickly frozen in liquid nitrogen and stored at -80° C. until used in binding assay. When used in the assay, cells were thawed on ice for 20 minutes and then 10 mL of incubation buffer (50 mM Tris, 1 mM EDTA, 4 mM MgCl2, 5 mM KCl, 1.5 mM CaCl2, 120 mM NaCl, pH7.4) was added. […] Concentration of receptor protein was determined using the Pierce BCA assay.
as §1

T1 sequence (P14416 1-414 isoform P14416-2): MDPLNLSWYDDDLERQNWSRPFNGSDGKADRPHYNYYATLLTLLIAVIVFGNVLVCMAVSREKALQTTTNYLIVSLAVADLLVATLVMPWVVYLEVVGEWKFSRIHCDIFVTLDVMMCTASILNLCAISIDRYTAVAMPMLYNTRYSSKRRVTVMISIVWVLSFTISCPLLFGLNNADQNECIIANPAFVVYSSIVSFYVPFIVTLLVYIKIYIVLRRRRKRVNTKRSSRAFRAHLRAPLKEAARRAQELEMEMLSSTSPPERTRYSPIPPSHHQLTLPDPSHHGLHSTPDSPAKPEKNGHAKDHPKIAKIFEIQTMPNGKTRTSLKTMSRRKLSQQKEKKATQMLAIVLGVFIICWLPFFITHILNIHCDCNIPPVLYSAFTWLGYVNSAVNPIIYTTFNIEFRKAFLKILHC
Sequence of 5-HT2 receptor (P14842 whole entry): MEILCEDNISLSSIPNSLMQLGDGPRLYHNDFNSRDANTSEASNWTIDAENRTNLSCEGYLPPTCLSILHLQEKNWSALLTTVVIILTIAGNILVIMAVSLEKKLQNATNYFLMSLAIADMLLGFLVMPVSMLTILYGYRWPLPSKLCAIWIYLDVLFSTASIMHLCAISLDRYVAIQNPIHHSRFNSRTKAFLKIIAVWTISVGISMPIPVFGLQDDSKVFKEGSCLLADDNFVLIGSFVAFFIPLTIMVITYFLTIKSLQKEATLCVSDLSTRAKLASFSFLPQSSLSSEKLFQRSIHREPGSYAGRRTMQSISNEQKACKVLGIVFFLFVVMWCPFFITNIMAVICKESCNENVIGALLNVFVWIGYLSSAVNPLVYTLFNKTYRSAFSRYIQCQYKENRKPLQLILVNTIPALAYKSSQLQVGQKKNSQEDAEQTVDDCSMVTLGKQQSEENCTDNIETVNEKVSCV

Row | SMILES | Ki [1] | Ki (5-HT2 receptor) | Ki [2]
1 | CC1CN(C2=Nc3ccccc3Oc3ccccc32)C(C)CN1 (stereo not drawn) [11-(2,5-dimethyl-1-piperazinyl)-dibenz[b,f][1,4]oxazepine] | 4890 nM | 92 nM | 4540 nM
2 | CC1CN(C2=Nc3ccccc3Oc3ccccc32)CC(C)N1 (stereo not drawn) [11-(3,5-dimethyl-1-piperazinyl)-dibenz[b,f][1,4]oxazepine] | 6330 nM | 368 nM | 1100 nM
3 | CC1CN(C2=Nc3cc(Cl)ccc3Oc3ccccc32)CC(C)N1 (stereo not drawn) [8-chloro-11-(3,5-dimethyl-1-piperazinyl)-dibenz[b,f][1,4]oxazepine] | 2170 nM | 13.4 nM | 215 nM
4 | CC1CN(C2=Nc3ccccc3Nc3cc(Cl)ccc32)CC(C)N1 (stereo not drawn) [3-chloro-11-(3,5-dimethyl-1-piperazinyl)-5H-dibenz[b,e][1,4]diazepine] | 14100 nM | 24 nM | 2750 nM

Source: US5824676A, “5-HT2 receptor ligands” (Allelix Biopharmaceuticals Inc., priority 1996, dated 1998)
